In patent US12384821B2, “Antimicrobial peptides and compositions, methods, articles and kits relating thereto” (George Mason University, priority 2020, dated 2025):
Read-outs that look alike come from different tables or passages of the source. Where no end group is shown, it is not given here.

Tests used:
[1] = tested on: carbapenem-resistant K. pneumoniae strain (ATCC BAA-1705); format: cell-based, Klebsiella pneumoniae; details: for MIC (μM) / MIC (μg/mL): ATCC BAA-1705; for Antibacterial activity against CRKP (in words): CA-MHB, high salt test conditions
Procedure: Klebsiella pneumoniae ATCC BAA-1705 was purchased from the American Type Culture Collection (Manassas, VA) and grown in Cation-Adjusted Mueller Hinton Broth. Bacteria were aliquoted and frozen at −80° C. with 20% glycerol and enumerated via serial dilution and plating prior to experimentation.
The minimum inhibitory concentration (MIC) of the peptides was determined according to Clinical & Laboratory Standards Institute (CLSJ) guidelines. Bacteria were grown overnight on Cation-adjusted Mueller Hinton Agar (BD 211438, CAMHA) at 37° C. Assays were performed in Cation-adjusted Mueller Hinton Broth (BD 212322, CAMHB) in polypropylene 96 well plates (Corning 3879). Each experiment was performed with three replicates at least three times.

[2] = tested on: CRKP infected waxworms; assay: Waxworm infection model (CRKP infected G. mellonella); format: in vivo, Galleria mellonella
Procedure: FIG. 5 is a graph showing waxworm survival curves. Waxworms were injected with 10 μL containing 5×10^5 CFU in their rear left proleg. The waxworms were allowed to recover for 30 minutes at 37° C. They were injected with 10 μL containing the various treatments. They were kept at 37° C. and scored for survival every 24 hours. Each group contained 10 waxworms.
Galleria mellonella larvae were obtained from Vanderhorst Wholesale (Saint Marys, OH, USA). 10 larvae weighing between 250 and 300 mg were randomly assigned to each group. Waxworms were injected with 10 μL containing […] suspended in DPBS in their rear left proleg. The waxworms were then allowed to recover for 30 minutes at 37° C. They were then injected with 10 μL DPBS containing the various treatments into their rear right proleg. They were then kept at 37° C. and scored for survival every 24 hours.
(§1) We tested these antimicrobial peptides in the waxworm, G. mellonella.

[3] = tested on: G. mellonella; parameters: species or system Galleria mellonella; details: in vivo
Source text: as §1

[4] = Circular dichroism spectroscopy, percent alpha-helicity; format: physicochemical; details: 100 μg/mL peptide
Procedure: Circular dichroism (CD) analysis of the peptides was performed using a Jasco J-1500 spectropolarimeter. 100 μg/mL of peptide was used in each experiment. Samples were allowed to equilibrate for 5 min prior to data collection at 25° C. in a 1 mm path length cuvette. Spectra were collected from 190 to 260 nm with at 20 nm/min, a data integration time of 4 seconds and a 1 nm bandwidth. Data shown represents the average of four spectra. The peptides were analyzed in 10 mM sodium phosphate buffer (6.12 mM sodium monohydrogen phosphate heptahydrate; 3.92 mM monosodium phosphate anhydrous; pH 7.4), 50% (v/v) trifluoroethanol (TFE) in phosphate buffer, or 60 mM sodium dodecyl sulfate (SDS) in phosphate buffer. Percent contribution to secondary structure was measured using methods described in Raussens, V. et al. (Analytical Biochemistry, 319(1):114-21 (2003)).
The secondary structures of many CAMPs are disordered in the absence of anionic membranes or micelles, but adopt more defined secondary structures in their presence. To detect and measure any changes that the DRGN peptides may undergo based on environment, we studied their structural properties in 10 mM phosphate buffer as a negative control, 60 mM SDS in 10 mM phosphate buffer and 50% 2,2,2-Trifluoroethanol (TFE) in 10 mM phosphate buffer. Phosphate buffer without SDS or TFE provided an environment for studying the conformational properties of the peptides structure in the absence a micelle or membrane. Sodium dodecyl sulfate is an anionic surfactant that can form micelles in aqueous buffers mimicking bacterial membranes and simulating the effects an anionic membrane can have on the conformations of antimicrobial peptides. Addition of trifluoroethanol to aqueous buffer promotes increased structure, usually helicity, in peptides with suitable sequences.

[5] = tested on: K. pneumoniae strain ATCC BAA-1705; assay: DiSC3(5) membrane depolarization assay; format: cell-based, Klebsiella pneumoniae; details: PBS, 100, 10 and 1 μg/ml, 20 min
Procedure: FIGS. 2A-2B are graphs showing (A) membrane disruption as measured by ethidium bromide uptake against K. pneumoniae strain ATCC BAA-1705 in PBS at 50 μg/ml. Δ RFU shown is after 20 min incubation, done twice in triplicate. A one-way ANOVA with multiple comparisons was performed to determine statistical significance (* p<0.05; ** p<0.01; *** p<0.001); and (B) membrane depolarization Membrane depolarization was measures using 3,3′-dipropylthiadicarbocyanine iodide (DiSC3(5)) against K. pneumoniae strain ATCC BAA-1705 in PBS at 100, 10 and 1 μg/ml. Δ RFU shown is after 20 min incubation, done twice in triplicate. DRGN-6 refers to SEQ ID NO:6, DRGN-7 refers to SEQ ID NO:6 with N-terminus acetylated, DRGN-8 refers to SEQ ID NO:7, NACATH refers to SEQ ID NO:9.
Membrane depolarization was measured using DiSC3(5) (3,3′-dipropylthiadicarbocyanine iodide) as previously described with some modifications. Stocks of enumerated frozen Klebsiella pneumonia ATCC BAA-1705 were pelleted and washed twice in phosphate buffered saline (PBS) and then resuspended to 4×10^7 CFU/ml in PBS containing 50 μg/ml DiSC3(5). […] The plate was incubated in a fluorescence spectrophotometer (Tecan Infinite 200) and monitored until fluorescence stopped decreasing. […] Readings were taken at 20 minutes after addition of peptide (excitation=635 nm; emission=670 nm). […]

| Molecule | MIC (μM) [1] [µM] | MIC (μg/mL) [1] [µg/mL] | MIC (μM) ([1]; CLSI protocol in CA-MHB) [µM] | MIC (μg/mL) ([1]; CLSI protocol in CA-MHB) [µg/mL] | other results |
| --- | --- | --- | --- | --- | --- |
| RRWRRFFRKAKRIIG-NH2 [DRGN-11] | >31 | >64 | – | – | Antibacterial activity against CRKP (in words) [1]: virtually inactive |
| CC[C@H](C)[C@H](NC(=O)[C@H](CCCCN)NC(=O)[C@H](CCC(=O)O)NC(=O)[C@H](CCCCN)NC(=O)[C@H](CO)NC(=O)[C@H](CCCCN)NC(=O)[C@H](CCCNC(=N)N)NC(=O)[C@H](Cc1ccccc1)NC(=O)[C@H](Cc1ccccc1)NC(=O)[C@H](CC(=O)O)NC(=O)CNC(=O)[C@H](CC(C)C)NC(=O)[C@@H](N)CC(C)C)C(=O)NCC(=O)N[C@@H](CCCCN)C(=O)N[C@@H](CCC(=O)O)C(=O)N[C@@H](Cc1ccccc1)C(=O)N[C@@H](CCCCN)C(=O)N[C@@H](CCCNC(=N)N)C(=O)N[C@H](C(=O)N[C@H](C(=O)N[C@@H](CCC(N)=O)C(=O)N[C@@H](CCCNC(=N)N)C(=O)N[C@H](C(=O)N[C@@H](CCCCN)C(=O)N[C@@H](CC(=O)O)C(=O)N[C@@H](Cc1ccccc1)C(=O)N[C@@H](CC(C)C)C(=O)N[C@@H](CCCNC(=N)N)C(=O)N[C@@H](CC(N)=O)C(=O)N[C@@H](CC(C)C)C(=O)N[C@H](C(=O)N1CCC[C@H]1C(=O)N[C@@H](CCCNC(=N)N)C(=O)N[C@H](C(=O)N[C@@H](CCC(=O)O)C(=O)N[C@@H](CO)C(=O)O)[C@@H](C)O)C(C)C)[C@@H](C)CC)C(C)C)[C@@H](C)CC [LL-37, reference compound] | – | – | >14 | >64 | Antibacterial activity against CRKP (in words) [1]: very little antibacterial activity |
| FRWRRFFRKAKRFLKRHGVSIAIGTVRLLRRFG [VK-CATH4.1] | – | – | 7.7 | 32 | – |
| CN(C)c1cc(NC(=O)CNC(C)(C)C)c(O)c2c1C[C@H]1C[C@H]3[C@H](N(C)C)C(O)=C(C(N)=O)C(=O)[C@@]3(O)C(O)=C1C2=O [tigecycline, reference compound] | – | – | – | – | Survival of CRKP infected caterpillars ([2]; control antibiotic injected): 100% |
| RRWRRFFQKAKRLLRRFG [DRGN-6] | 1.6 | 4 | – | – | Toxicity of peptide alone in waxworm [3]: none of the peptides DRGN-6, -7 and -8 alone caused toxicity |
| Ac-FRWRRFFRKAKRFLKRHGVSIAIGTVRLLRRFG-NH2 [DRGN-5] | – | – | 7.7 | 32 | – |
| H-RRWRRFFQKAKRLLRRFG-NH2 [DRGN-7] | 1.6 | 4 | – | – | Percent alpha-helicity, 10 mM phosphate buffer ([4]; 10 mM phosphate buffer): 3.0%; Percent alpha-helicity, SDS ([4]; 60 mM SDS in 10 mM phosphate buffer): 77.0%; Percent alpha-helicity, TFE ([4]; 50% TFE in 10 mM phosphate buffer): 72.6%; Membrane depolarization, DiSC3(5) [5]: significant depolarization at all concentrations tested; Toxicity of peptide alone in waxworm [3]: none of the peptides DRGN-6, -7 and -8 alone caused toxicity; Change of MIC compared to DRGN-6 ([1]; increase = decreased effectiveness): no effect on MIC; Survival benefit in CRKP infected waxworms ([2]; single injection 30 min after infection): no survival benefit was observed |
| Colistin [reference compound] | – | – | 3.46 | 4 | – |
| RRWRRFFRKAKRLLRRFG-NH2 [DRGN-9] | 6.4 | 16 | – | – | Increase in MIC compared to unmodified counterpart DRGN-8 ([1]; C-terminal amidation, decreased effectiveness): 2 fold |
| RRWRRFFRKAKRLLRRFG [DRGN-8] | 3.2 | 8 | – | – | Toxicity of peptide alone in waxworm [3]: none of the peptides DRGN-6, -7 and -8 alone caused toxicity |
| RRWRRFFRKAKRIIG-OH [DRGN-10] | >31 | >64 | – | – | Antibacterial activity against CRKP (in words) [1]: virtually inactive |
| H-FRWRRFFRKAKRFLKRHAVSIAIGTVRLLRRFG-OH [DRGN-2] | – | – | 7.7 | 32 | – |
| Ac-FRWRRFFRKAKRFLKRHAVSIAIGTVRLLRRFG-NH2 [DRGN-3] | – | – | 7.6 | 32 | – |
| RRWRRFFQKAKRFVKRHGVSIAVGAYRIIG [VK-CATH4.2] | 8.7 | – | – | 32 | – |
